The values below come from ChEMBL document CHEMBL1133110, “bis-Quinolinium cyclophanes: 8,14-diaza-1,7(1, 4)-diquinolinacyclotetradecaphane (UCL 1848), a highly potent and selective, nonpeptidic blocker of the apamin-sensitive Ca(2+)-activated K(+) channel” (J Med Chem, 2000).

Data set [1] can be described thus: Equieffective molar ratio is ratio of the concentration of the test compound and dequalinium that cause 50% inhibition of AHP.
The species named for data set [2] is Rattus norvegicus. The data set is described as follows: tested for their ability to inhibit the after- hyperpolarization in cultured rat sympathetic neurons. Type of data set: functional, Sympathetic neuron.
The species entered for data set [3] is Rattus norvegicus. Nature of the data set: tested for their ability to inhibit the after- hyperpolarization in cultured rat sympathetic neurons (omitting the comparison with dequalinium). It is filed as functional. The conditions noted are these: Sympathetic neuron.
For data set [4], the species on record is Rattus norvegicus. Nature of the data set: tested for their ability to inhibit the after- hyperpolarization (AHP) in cultured rat sympathetic neurons. It is filed as functional. To be noted: Sympathetic neuron.
Where [5] appears, read: Rattus norvegicus, Sympathetic neuron.

For the compound `c1cc2cc(c1)C[n+]1ccc(c3ccccc31)NCc1ccc(cc1)CNc1cc[n+](c3ccccc13)C2`, in data set [1], the EMR turned out to be 0.01.

Broadly, the IC50 is the midpoint of a concentration-inhibition curve. Lower therefore signals greater potency in that assay. In the data set listed under Rattus norvegicus [2] (setting [5]), `[I-].[I-].c1ccc2c(c1)c1cc[n+]2CCCCCC[n+]2ccc(c3ccccc32)NCCCCCCN1` had an IC50 of 60 nM. Besides, the EMR in data set [1] is 0.1.

In the data set listed under Rattus norvegicus [2] (setting [5]), `[I-].[I-].c1ccc2c(c1)c1cc[n+]2CCCCCCCCCC[n+]2ccc(c3ccccc32)NCCCCCCCCCCN1` came in with an IC50 of 260 nM. Besides, in data set [1], the EMR amounted to 0.44.

With `[I-].[I-].c1ccc2c(c1)c1cc[n+]2CCC[n+]2ccc(c3ccccc32)NCCCN1` (stereo in doubt; form 1), in the data set filed under Rattus norvegicus [2] (sympathetic neuron), the IC50 came out at 130 nM. The EMR in data set [1] came to 0.27.

In the data set filed under Rattus norvegicus [2] (setting [5]), `[I-].[I-].c1ccc2c(c1)c1cc[n+]2CCCC[n+]2ccc(c3ccccc32)NCCCCN1` displayed an IC50 of 40 nM. Further, the EMR in data set [1] is on record as 0.09.

Consider `[I-].[I-].c1ccc2c(c1)c1cc[n+]2CCCCC[n+]2ccc(c3ccccc32)NCCCCCN1`, for which the IC50 in the data set filed under Rattus norvegicus [2] (setting [5]) was found to be 2 nM; in the data set listed under Rattus norvegicus [3] it was 2.7 nM. Further, the EMR in data set [1] turned out to be 0.003.

As to `Cc1cc(N)c2ccccc2[n+]1CCCCCCCCCC[n+]1c(C)cc(N)c2ccccc21.[Cl-].[Cl-]` [DEQUALINIUM CHLORIDE], in data set [1], the EMR was determined as 1. In the data set listed under Rattus norvegicus [4], this compound gave a 50% inhibitory concentration (IC50) of 490 nM.

`[I-].[I-].c1ccc2c(c1)c1cc[n+]2CCC[n+]2ccc(c3ccccc32)NCCCN1` (stereo in doubt; form 2) came in with an IC50 in the data set listed under Rattus norvegicus [2] (sympathetic neuron) of 380 nM. The EMR in data set [1] was 0.77.

As to `[I-].[I-].c1ccc2c(c1)c1cc[n+]2CCCCCCCC[n+]2ccc(c3ccccc32)NCCCCCCCCN1`, the midpoint of inhibition in the data set listed under Rattus norvegicus [2] (setting [5]), the IC50, lay at 190 nM. Moreover, the EMR in data set [1] amounted to 0.43.
